Structures can show the parent of a compound that is named as a salt.
Molecular target: T1, human Y5 receptor (hNPY-5) (Homo sapiens, UniProt Q15761)
T1 construct: expressed in transfected cells; host or cells: mouse fibroblast LM(tk-) cells, e.g. L-hY5-7 (ATCC CRL-11995)
T1 sequence (Q15761 1-445): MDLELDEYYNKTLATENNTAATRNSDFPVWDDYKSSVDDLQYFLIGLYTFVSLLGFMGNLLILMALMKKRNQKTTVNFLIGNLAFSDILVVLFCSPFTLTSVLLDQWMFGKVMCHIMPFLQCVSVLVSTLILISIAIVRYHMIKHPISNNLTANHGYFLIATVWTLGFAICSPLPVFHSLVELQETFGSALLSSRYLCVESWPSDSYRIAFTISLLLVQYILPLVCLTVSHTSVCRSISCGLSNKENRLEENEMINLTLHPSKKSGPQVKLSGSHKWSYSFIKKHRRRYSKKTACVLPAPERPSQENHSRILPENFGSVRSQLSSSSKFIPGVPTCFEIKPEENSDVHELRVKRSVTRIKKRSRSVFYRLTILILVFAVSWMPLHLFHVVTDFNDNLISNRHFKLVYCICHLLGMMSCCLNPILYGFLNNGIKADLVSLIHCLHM
Assay: Radioligand binding to membranes, cloned human Y5 receptor
Details: cloned human NPY Y5 receptor, radioligand competition binding; Tables 1-3; read-out: Ki, nM hNPY-5
Experimental: Binding of the compounds of the present invention to human Y1, Y2, Y4, and Y5 receptors was evaluated using stably transfected 293 or LM(tk-) cells as described above. Stably transfected cell lines which may be used for binding assays include, for example, for the human Y1 receptor, 293-hY1-5 (deposited Jun. 4, 1996, under ATCC Accession No. CRL-12121), for the human Y2 receptor, 293-hY2-10 (deposited Jan. 27, 1994, under ATCC Accession No. CRL-11537), for the human Y4 receptor, L-hY4-3 (deposited Jan. 11, 1995, under ATCC Accession No. CRL-11779), and for human Y5 receptor, L-hY5-7 (deposited Nov. 15, 1995, under ATCC Accession No. CRL-11995). These cell lines were deposited with the American Type Culture Collection (ATCC), 10801 University Blvd., Manassas, Va. 20110-2209, U.S.A. under the provisions of the Budapest Treaty for the International Recognition of the Deposit of Microorganisms for the Purposes of Patent Procedure.
Membranes were harvested from COS-7 cells 48 hours after transient transfection. Adherent cells were washed twice in ice-cold phosphate buffered saline (138 mM NaCl, 8.1 mM Na2HPO4, 2.5 mM KCl, 1.2 mM KH2PO4, 0.9 mM CaCl2, 0.5 mM MgCl2, pH 7.4) and lysed by sonication in ice-cold sonication buffer (20 mM Tris-HCl, 5 mM EDTA, pH 7.7). Large particles and debris were cleared by low speed centrifugation (200×g, 5 min, 4° C.). Membranes were collected from the supernatant fraction by centrifugation (32,000×g, 18 min, 4° C.), washed with ice-cold hypotonic buffer, and collected again by centrifugation (32,000×g, 18 min, 4° C.). The final membrane pellet was resuspended by sonication into a small volume of ice-cold binding buffer (˜1 ml for every 5 plates: 10 mM NaCl, 20 mM HEPES, 0.22 mM KH2PO4, 1.26 mM CaCl2, 0.81 mM MgSO4, pH 7.4). Protein concentration was measured by the Bradford method (Bradford, 1976) using Bio-Rad Reagent, with bovine serum albumin as a standard. Membranes were held on ice for up to one hour and used fresh, or flash-frozen and stored in liquid nitrogen.
Membranes were prepared similarly from 293, LM(tk-), and NIH-3T3 cells. To prepare membranes from baculovirus infected cells, 2×10^7 Sf21 cells were grown in 150 mm tissue culture dishes and infected with a high-titer stock of hY5BB3. Cells were incubated for 2-4 days at 27° C., no CO2 before harvesting and membrane preparation as described above.
Membrane suspensions were diluted in binding buffer supplemented with 0.1% bovine serum albumin to yield an optimal membrane protein concentration so that ^125I-PYY (or alternative radioligand such as ^125I-NPY, ^125I-PYY3-36, or ^125I-[Leu^31Pro^34]PYY) bound by membranes in the assay was less than 10% of ^125I-PYY (or alternative radioligand) delivered to the sample (100,000 dpm/sample=0.08 nM for competition binding assays). ^125I-PYY (or alternative radioligand) and peptide competitors were also diluted to desired concentrations in supplemented binding buffer. Individual samples were then prepared in 96-well polypropylene microtiter plates by mixing 125I-PYY (25 μL) (or alternative radioligand), competing peptides or supplemented binding buffer (25 μL), and finally, membrane suspensions (200 μL). Samples were incubated in a 30° C. water bath with constant shaking for 120 min. Incubations were terminated by filtration over Whatman GF/C filters (pre-coated with 1% polyethyleneimine and air-dried before use), followed by washing with 5 mL of ice-cold binding buffer. Filter-trapped membranes were impregnated with MeltiLex solid scintillant (Wallac, Turku, Finland) and counted for ^125I in a Wallac Beta-Plate Reader. Alternatively, incubations were carried out in GF/C filter plates (pre-coated with 1% polyethyleneimine and air-dried before use), followed by vacuum filtration and three washes of 300 μL of ice-cold binding buffer. 50 μL of UltimaGold (Packard) scintillant were added and counted for ^125I in a Wallac MicroBeta Trilux. […]

Row | Structure (SMILES) | Ki
1 | CC(C)N(C=O)[C@H]1CC[C@H](CNc2nc(-c3ccccc3)cs2)CC1 [Example 99, trans-N-Isopropyl-N-(4-[(4-phenyl-1,3-thiazol-2-yl)amino]methylcyclohexyl)formamide] | 45 nM
2 | CC(C)(C)OC(=O)NC[C@H]1CC[C@H](Nc2nc3c(s2)CCSc2ccccc2-3)CC1 [Example 100, tert-Butyl N-{[4-(4,5-Dihydrobenzo[2,3]thiepino[4,5-d][1,3]thiazol-2-ylamino)cyclohexyl]methyl}carbamate] | 24 nM
3 | COc1ccccc1-c1csc(N[C@H]2CC[C@H](CNS(C)(=O)=O)CC2)n1 [Example 91, trans-4-(2-Methoxy)phenyl-2-(4-methylsulfonylamino-methyl)-cyclohexylamino-1,3-thiazole hydrochloride] | 12.3 nM
4 | CCOC(=O)NC[C@H]1CC[C@H](Nc2nc(-c3cccc(OC)c3)cs2)CC1 [Example 94, trans-2-(4-Ethoxycarbonylaminomethyl)cyclohexylamino-4-(3-methoxy)phenylthiazole hydrogen chloride] | 240 nM
5 | CCN(C=O)[C@H]1CC[C@H](CNc2nc3c(s2)CCOc2ccccc2-3)CC1 [Example 87, trans-1-Aza-2-(4-(n-(ethyl) formamido)cyclohexyl)methyl-amino-4,5-dihydro-6-oxa-3-thia-benzo[e]azulene] | 86 nM
6 | COCC(=O)N[C@H]1CC[C@H](CNc2nc3c(s2)CCOc2ccccc2-3)CC1 [Example 84, N1-{4-[(4,5-dihydrobenzo[2,3]oxepino[4,5-d][1,3]thiazol-2-ylamino)methyl]cyclohexyl}-2-methoxyacetamide] | 40 nM
7 | CS(=O)(=O)NC[C@H]1CC[C@H](Nc2nc(-c3ccccc3O)cs2)CC1 [Example 95, trans-4-(2-Hydroxy)phenyl-2-(4-methylsulfonylamino-methyl)-cyclohexylaminothiazole] | 106 nM
8 | O=S(=O)(NCCCCCNc1nc2c(s1)CCCc1ccc(F)cc1-2)c1cccnc1 [Example 55, 1-Aza-9-fluoro-4,5-dihydro-2-(5-(3-pyridyl)sulfonyl-amino)pentylamino-3-thia-benzo[e]azulene] | 3.4 nM
9 | O=S(=O)(NCCCCNc1nc2c(s1)CCCc1ccc(F)cc1-2)c1cccnc1 [Example 56, 1-Aza-9-fluoro-4,5-dihydro-2-(4-(3-pyridyl)sulfonyl-amino)butylamino-3-thia-benzo[e]azulene] | 26 nM
10 | COc1ccc(C)cc1S(=O)(=O)NCCOCCNc1nc2c(s1)CCCc1ccc(F)cc1-2 [Example 58, 1-Aza-9-fluoro-4,5-dihydro-2-{2-[2-(2-methoxy-5-methylphenyl)sulfonylamino]ethoxy}ethylamino-3-thia-benzo[e]azulene] | 3 nM
11 | COCCN(C=O)[C@H]1CC[C@H](CNc2nc(-c3ccccc3)cs2)CC1 [Example 98, trans-N-(2-Methoxyethyl)-N-(4-[(4-phenyl-1,3-thiazol-2-yl)amino]methylcyclohexyl)formamide] | 125 nM
12 | COc1ccc(S(=O)(=O)N[C@H]2CC[C@H](Nc3nc4c(s3)CCCc3ccc(F)cc3-4)CC2)cc1 [Example 36, trans-1-Aza-9-fluoro-4,5-dihydro-2-(4-(4-methoxy-phenyl)sulfonylamino)cyclohexylamino-3-thia-benzo[e]-azulene] | 60 nM
13 | COCCOC(=O)NC[C@H]1CC[C@H](Nc2nc3c(s2)CCCc2ccc(F)cc2-3)CC1 [Example 77, trans-1-Aza-9-fluoro-4,5-dihydro-2-(4-(2-methoxy)-ethoxy-carbonylaminomethyl)cyclohexylamino-3-thia-benzo[e]azulene] | 14.6 nM
14 | CCOC(=O)N[C@H]1CC[C@H](CNc2nc3c(s2)CCCc2ccc(F)cc2-3)CC1 [Example 68, trans-N2-(4-Ethoxycarbonylamino)cyclohexylmethyl-9-fluoro-5,6-dihydro-4H-benzo[6,7]cyclohepta[d][1,3]-thiazol-2-amine hydrochloride] | 4 nM
15 | O=S(=O)(NC[C@H]1CC[C@H](Nc2nc3c(s2)CCCc2ccc(F)cc2-3)CC1)N1CCOCC1 [Example 76, trans-1-Aza-9-fluoro-4,5-dihydro-2-(4-(4-morpholinyl)-sulfonylaminomethyl)cyclohexylamino-3-thia-benzo[e]azulene] | 4.1 nM
16 | CS(=O)(=O)NCC1CCC(Nc2nc3c(s2)COc2ccccc2-3)CC1 (stereo not drawn) [Example 70, 2-(4-Methylsulfonylaminomethyl)cyclohexylamino-4H-chromeno[4,3-d]thiazole] | 21 nM
17 | CCCN(C=O)C[C@H]1CC[C@H](Nc2nc3c(s2)CCCc2ccc(F)cc2-3)CC1 [Example 82, trans-1-Aza-9-fluoro-4,5-dihydro-2-(4-(N-propyl-formamido)-methyl)cyclohexylamino-3-thia-benzo[e]-azulene] | 11.9 nM
18 | O=S(=O)(NCCCCNc1nc2c(s1)CCCc1ccc(F)cc1-2)c1cccc2ccccc12 [Example 8, 1-Aza-9-fluoro-4,5-dihydro-2-(4-(1-naphthyl)sulfonyl-amino)butylamino-3-thia-benzo[e]azulene] | 94 nM
19 | O=S(=O)(NC[C@H]1CC[C@H](Nc2nc3c(s2)CCCc2ccc(F)cc2-3)CC1)c1cccnc1 [Example 59, trans-1-Aza-9-fluoro-4,5-dihydro-2-(4-(3-pyridyl)-sulfonylaminomethyl)cyclohexylamino-3-thia-benzo[e]-azulene] | 2.3 nM
20 | COc1ccc2c(c1)CCCc1sc(N[C@H]3CC[C@H](CNS(=O)(=O)N4CCOCC4)CC3)nc1-2 [Example 78, trans-N2-(4-(1-Morpholinylsulfonylaminomethyl)-cyclohexyl-8-methoxy-5,6-dihydro-4H-benzo[6,7]-cyclohepta[d][1,3]thiazol-2-amine hydrochloride] | 6 nM
21 | COCCN(C=O)[C@H]1CC[C@H](CNc2nc3c(s2)CCOc2ccccc2-3)CC1 [Example 86, N-{4-[(4,5-dihydrobenzo[2,3]oxepino[4,5-d][1,3]thiazol-2-ylamino)methyl]cyclohexyl}-N-(2-methoxyethyl)formamide] | 68 nM
22 | COc1ccccc1-c1csc(N[C@H]2CC[C@H](CN(C=O)C(C)C)CC2)n1 [Example 96, trans-2-(4-(N-Isopropyl)formamidomethyl)cyclohexyl-amino-4-(2-methoxy)phenylthiazole hydrogen chloride] | 56 nM
23 | CCOC(=O)NC[C@H]1CC[C@H](Nc2nc(-c3ccccc3OC)cs2)CC1 [Example 92, trans-2-(4-Ethoxycarbonylaminomethyl)cyclohexylamino-4-(2-methoxy)phenylthiazole hydrogen chloride] | 912 nM
24 | CN(C)S(=O)(=O)NC[C@H]1CC[C@H](CNc2nc3c(s2)CCSc2ccc(F)cc2-3)CC1 [Example 106] | 2.6 nM

Source: patent publication US7273880B2, “Selective NPY (Y5) antagonists” (H. Lunbeck A/S, priority 1999, dated 2007)
